A short description of data set [1]: Cytotoxicity against mouse NIH3T3 cells assessed as survival rate at 10 uM measured after 24 hrs by CCK-8 assay relative to control. The class given is toxicity, cell-based. The note with it: read-out: Survival.
Data set [2] concerns NIH3T3. The data set is described as follows: Anti-fibrotic activity in mouse NIH3T3 cells assessed as inhibition of TGFbeta-induced total collagen production at 10 uM measured after 48 hrs by Sirius Red Collagen Detection Kit relative to control. The class given is functional.
Data set [3] has as its system NIH3T3. The data set is described as follows: Anti-fibrotic activity in mouse NIH3T3 cells assessed as inhibition of TGFbeta-induced total collagen production measured after 48 hrs by Sirius Red Collagen Detection Kit relative to control. The class given is functional, cell-based. The note with it: NIH3T3, 48 h.
For data set [4], the system named is NIH3T3. The data set is described as follows: Inhibition of TGFbeta1-induced proliferation of mouse NIH3T3 cells assessed as colony formation at 10 uM measured after 7 to 14 days by Crystal violet staining based assay. The class given is functional, cell-based. The note with it: time 7-14 day.
A further data set has as its system L929. The experiment in a line: Anti-migratory activity in mouse L929 cells assessed as inhibition of TGFbeta1-induced migration at 10 uM measured after 24 hrs by Wound healing assay. The format is functional, cell-based.

Structures are written as SMILES. The source made the active and inactive calls. The calls are words filed in the database; no cut-off is given here.

`O=C(CCCCc1ccccc1)NCc1ccc(O)c(O)c1`: in data set [1], the viability at 24 h, 10 µM amounted to 118%. Moreover, the inhibition at 10 µM in the data set with NIH3T3 [2] came out at 65.2%.
Taken in the same sequence, the figures for `OC(/C=C/C=C/c1ccccc1)CCc1ccccc1` (configuration not stated) were 119% and 61.9%.
Taken in the same sequence, the figures for `Oc1ccc(CCC(O)CC/C=C/c2ccccc2)cc1O` (configuration not stated) were 131% and 56.6%.
Taken in the same sequence, the figures for `O=C(CCCCc1ccccc1)CCc1ccc(O)cc1` were 117% and 49.7%.
Regarding `CCCCCC(=O)NCc1ccc(OC(C)=O)c(OC(C)=O)c1`, the viability at 24 h, 10 µM in data set [1] came out at 138%. In addition, in the data set on NIH3T3 [2], the inhibition at 10 µM came to 50.9%.
For `O=C(CC/C=C/c1ccccc1)CCc1ccccc1` the same measures were -1.47% and 55.3%.
For `COc1ccc(CCC(=O)CCCCc2cccc(O)c2)cc1O` the same measures were 95.7% and 60.6%.
Regarding `CC(=O)Oc1ccc(CCC(CCCCc2ccccc2)OC(C)=O)cc1OC(C)=O` (configuration not stated), in data set [1], the viability at 24 h, 10 µM amounted to 111%. In the data set on NIH3T3 [2], the inhibition at 10 µM is 51.9%.
Taken in the same sequence, the figures for `CC(C)CC(=O)NCc1ccc(O)c(O)c1` were 115% and 10.4%.
Take `CCCCC(=O)NCc1ccc(OC(C)=O)c(OC(C)=O)c1`: the viability at 24 h, 10 µM in data set [1] turned out to be 131%. Further, the inhibition at 10 µM in the data set with NIH3T3 [2] was 53%.
Consider `COC(=O)c1ccc2c(c1)NC(=O)/C2=C(\Nc1ccc(N(C)C(=O)CN2CCN(C)CC2)cc1)c1ccccc1` [NINTEDANIB], for which the viability at 24 h, 10 µM in data set [1] came out at 20.5%. In addition, the IC50 with NIH3T3 [3] is 270 nM. Also, the inhibition entry in the data set on NIH3T3 [4] is “Active”. In addition, the inhibition at 10 µM with NIH3T3 [2] stood at 89.5%.
With `COc1ccc(OC)c(CCCCC(=O)CCc2ccc(OC)c(O)c2)c1`, the viability at 24 h, 10 µM in data set [1] came to 96.8%. Moreover, the inhibition at 10 µM with NIH3T3 [2] worked out at 59.2%.
`OC(CCCCc1ccccc1)CCc1ccccc1` (configuration not stated): in data set [1], the viability at 24 h, 10 µM was determined as 74.1%. Further, the IC50 in the data set on NIH3T3 [3] came out at 1570 nM. Also, the inhibition at 10 µM with NIH3T3 [2] came to 72.2%. Also, the result in the data set on L929 was Active.
Turning to `COc1cc(/C=C/C(O)CC(=O)/C=C/c2ccc(O)cc2)ccc1O` (configuration not stated), in data set [1], the viability at 24 h, 10 µM was 88.9%. For the same molecule, the inhibition at 10 µM in the data set on NIH3T3 [2] was -41.6%.
Taken in the same sequence, the figures for `O=C(CCc1ccccc1)CC(O)CCc1ccccc1` (configuration not stated) were 111% and 62.9%.
Take `CCCCC(=O)NCc1ccc(OC)c(OC)c1`: the viability at 24 h, 10 µM in data set [1] was determined as 86%. Besides, the inhibition at 10 µM in the data set on NIH3T3 [2] was -2.64%.
As to `CCCCCCCCCC(=O)NCc1ccc(OC(C)=O)c(OC(C)=O)c1`, in data set [1], the viability at 24 h, 10 µM turned out to be 141%. Also, the IC50 in the data set with NIH3T3 [3] was determined as 2630 nM. For the same molecule, in the data set with NIH3T3 [4], the inhibition result was “Active”. For the same molecule, the inhibition at 10 µM in the data set with NIH3T3 [2] was 68.9%.
Take `CCCCCCCCC(=O)NCc1ccc(O)c(O)c1`: in data set [1], the viability at 24 h, 10 µM was 90.5%. In addition, the inhibition at 10 µM in the data set on NIH3T3 [2] worked out at 61.4%.
Taken in the same sequence, the figures for `OC(CCc1ccccc1)CC(O)CCc1ccccc1` (configuration not stated) were 101% and 46.9%.
In the case of `CCCCCCCC(=O)NCc1ccc(O)c(O)c1`, the viability at 24 h, 10 µM in data set [1] was 133%. In addition, in the data set with NIH3T3 [2], the inhibition at 10 µM was 58.1%.
For `COc1cc(/C=C/C(=O)CC(O)/C=C/c2ccc(O)c(OC)c2)ccc1O` (configuration not stated) the same measures were 85% and 19.4%.
Taken in the same sequence, the figures for `CCCCC(=O)NCc1ccc(O)c(O)c1` were 123% and 54.2%.
On to `C(=C\C=C\c1ccccc1)/C=C/Cc1ccccc1`, for which the viability at 24 h, 10 µM in data set [1] was -2.34%. The inhibition at 10 µM with NIH3T3 [2] worked out at 57.5%.
On to `COc1ccc(CNC(=O)CC(C)C)cc1OC`, for which the viability at 24 h, 10 µM in data set [1] was 88.2%. Moreover, in the data set on NIH3T3 [2], the inhibition at 10 µM is -41.7%.
Turning to `COc1cc(CCC(O)CC/C=C/c2ccccc2)ccc1O` (configuration not stated), the viability at 24 h, 10 µM in data set [1] is 103%. The inhibition at 10 µM with NIH3T3 [2] was found to be 43.7%.
For `COc1ccc(CCC(=O)CC/C=C/c2ccccc2)cc1` the same measures were 38.8% and 57.7%.
Taken in the same sequence, the figures for `CC(=O)Oc1ccc(CNC(=O)CC(C)C)cc1OC(C)=O` were 124% and 11.2%.
Taken in the same sequence, the figures for `Oc1ccc(/C=C/CCC(O)CCc2ccc(O)cc2)cc1` (configuration not stated) were 132% and 60.9%.
Take `O=C(CCCCc1ccccc1)CCc1ccccc1`: the viability at 24 h, 10 µM in data set [1] was determined as 94.1%. The inhibition at 10 µM in the data set with NIH3T3 [2] is 58.8%.
Regarding `O=C(CC/C=C/c1ccccc1)CCc1ccc(O)cc1`, the viability at 24 h, 10 µM in data set [1] is -3.97%. The inhibition at 10 µM in the data set on NIH3T3 [2] amounted to 40.1%.
In the case of `COc1ccc(CCCCC(O)CCc2ccc(OC)c(O)c2)c(OC)c1` (configuration not stated), in data set [1], the viability at 24 h, 10 µM was 114%. Besides, the IC50 with NIH3T3 [3] came out at 21900 nM. In addition, the inhibition at 10 µM in the data set on NIH3T3 [2] is 68.5%.
On to `COc1ccc(CCC(/C=C/C=C/c2ccccc2)OC)cc1O` (configuration not stated), for which the viability at 24 h, 10 µM in data set [1] came to 93.2%. For the same molecule, the inhibition at 10 µM in the data set on NIH3T3 [2] is 63%.
For `CCCCCC(=O)NCc1ccc(O)c(O)c1` the same measures were 118% and 60.2%.
Taken in the same sequence, the figures for `CCCCCCCCCC(=O)NCc1ccc(O)c(O)c1` were 121% and 64.8%.
For `COC(/C=C/C=C/c1ccccc1)CCc1ccc(O)cc1` (configuration not stated) the same measures were 111% and 57.7%.
Consider `CC(=O)Oc1ccc(CNC(=O)CCCCc2ccccc2)cc1OC(C)=O`, for which, in data set [1], the viability at 24 h, 10 µM was 129%. The IC50 in the data set with NIH3T3 [3] is 1430 nM. In addition, the inhibition entry with NIH3T3 [4] is “Active”. The inhibition at 10 µM with NIH3T3 [2] was determined as 70.6%.
Consider `CC(=O)Oc1ccc(/C=C/C(=O)Cc2ccccc2)cc1OC(C)=O`, for which the viability at 24 h, 10 µM in data set [1] was found to be 149%. Moreover, in the data set with NIH3T3 [2], the inhibition at 10 µM is 18.8%.
`O=C(/C=C/c1ccc(O)cc1)CC(O)/C=C/c1ccc(O)cc1` (configuration not stated): in data set [1], the viability at 24 h, 10 µM came out at 101%. For the same molecule, in the data set with NIH3T3 [3], the 50% inhibitory concentration (IC50) stood at 4760 nM. Further, the inhibition at 10 µM in the data set with NIH3T3 [2] is 72.8%. Also, the outcome in the data set on L929 was Active.
As to `COc1cc(CNC(=O)CCCCCCC(C)C)ccc1O` [DIHYDROCAPSAICIN], the viability at 24 h, 10 µM in data set [1] is 92.3%. For the same molecule, the IC50 with NIH3T3 [3] amounted to 20400 nM. Also, in the data set with NIH3T3 [2], the inhibition at 10 µM came to 50%.
As for `COc1ccc(CCC(=O)CCCCc2cccc(O)c2)cc1`, the viability at 24 h, 10 µM in data set [1] is 91.1%. In the data set on NIH3T3 [3], the IC50 is 2080 nM. Further, the inhibition result in the data set with NIH3T3 [4] is “Active”. Moreover, in the data set with NIH3T3 [2], the inhibition at 10 µM is 67.6%.
With `COc1ccc(CNC(=O)CCCCc2ccccc2)cc1OC`, the viability at 24 h, 10 µM in data set [1] is 91.2%. The inhibition at 10 µM with NIH3T3 [2] is -9.64%.
Taken in the same sequence, the figures for `CCCCCCCCC(=O)NCc1ccc(OC(C)=O)c(OC)c1` were 129% and 56.4%.
For `CCCCCCCC(=O)NCc1ccc(OC(C)=O)c(OC(C)=O)c1` the same measures were 151% and 56.3%.
For `CCCCCCCCC(=O)NCc1ccc(O)c(OC)c1` [NONIVAMIDE], in data set [1], the viability at 24 h, 10 µM amounted to 92%. The inhibition at 10 µM in the data set with NIH3T3 [2] stood at 58.7%.
Taken in the same sequence, the figures for `CCCCCC(=O)NCc1ccc(OC)c(OC)c1` were 85.8% and -9.02%.
Taken in the same sequence, the figures for `COc1cc(CNC(=O)CCCC/C=C/C(C)C)ccc1O` [CAPSAICIN] were 98.6% and 35.3%.
On to `CCCCCCCCCC(=O)NCc1ccc(OC)c(OC)c1`, for which, in data set [1], the viability at 24 h, 10 µM came out at 101%. In addition, the inhibition at 10 µM in the data set with NIH3T3 [2] was -5.71%.
For `CCCCCCCC(=O)NCc1ccc(OC)c(OC)c1` the same measures were 103% and 11.6%.
Taken in the same sequence, the figures for `CCCCCCCCC(=O)NCc1ccc(OC(C)=O)c(OC(C)=O)c1` were 137% and 66%.

One may read the inhibition as the relative decrease from the control value, in per cent. In general, IC50 refers to the concentration at which inhibition is half-maximal.
